Measurements as given in patent US20250353891A1 (MEDIMMUNE LIMITED, priority 2022, published 2025).
Starred links: 1 amine or outer side, 2 acyl side, 3 side chain; linkers in the order of their positions; H or OH if unused. Non-standard residues stand in square brackets, D forms with d. Residues, ends and D or L forms follow the SMILES beside them. Groups on a side chain read outwards from the residue. *: point of attachment. C20 diacid = O=C(O)CCCCCCCCCCCCCCCCCCC(=O)*; C18 diacid = O=C(O)CCCCCCCCCCCCCCCCC(=O)*; γGlu = O=C(O)[C@H](CCC(=O)[*:2])N[*:1]; αMeF = C[C@](N)(Cc1ccccc1)C(=O)O; AEEA = NCCOCCOCC(=O)O; Aib = CC(C)(N)C(=O)O

Experiments:
[1] = target: human GLP-1 receptor (hGLP-1R) (Homo sapiens, UniProt P43220); test: cAMP production (HTRF) in CHO cells expressing hGLP-1R; assay type: cell-based; design: expressed in transfected cells; conditions: for EC50: Table 7, peptides modified at position 20, cAMP in CHO hGLP-1R cells, geometric mean, read-out: hGLP-1R EC50; for % Relative Potency Ratio: Table 7, % GLP-1R activity relative to GLP-1 / % GlucR activity relative to glucagon
In short: (§1)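 Potency values represent EC50 from 4-parameter logistic curves of HTRF % Delta F signal. Receptor-expressing CHO cells (hGCGR 2×10^5 cells/mL, hGLP-1R 1×10^5 cells/mL) were exposed for 30 min at room temperature before two-step cAMP detection.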

[2] = target: human glucagon receptor (hGCGR) (Homo sapiens, UniProt P47871); test: cAMP production (HTRF) in CHO cells expressing hGCGR; assay type: cell-based; design: expressed in transfected cells; conditions: Table 7, peptides modified at position 20; cAMP in CHO hGCGR cells; geometric mean; read-out: hGluc-R EC50
In short: as §1

Sequence of human GLP-1 receptor (hGLP-1R) (P43220 24-463): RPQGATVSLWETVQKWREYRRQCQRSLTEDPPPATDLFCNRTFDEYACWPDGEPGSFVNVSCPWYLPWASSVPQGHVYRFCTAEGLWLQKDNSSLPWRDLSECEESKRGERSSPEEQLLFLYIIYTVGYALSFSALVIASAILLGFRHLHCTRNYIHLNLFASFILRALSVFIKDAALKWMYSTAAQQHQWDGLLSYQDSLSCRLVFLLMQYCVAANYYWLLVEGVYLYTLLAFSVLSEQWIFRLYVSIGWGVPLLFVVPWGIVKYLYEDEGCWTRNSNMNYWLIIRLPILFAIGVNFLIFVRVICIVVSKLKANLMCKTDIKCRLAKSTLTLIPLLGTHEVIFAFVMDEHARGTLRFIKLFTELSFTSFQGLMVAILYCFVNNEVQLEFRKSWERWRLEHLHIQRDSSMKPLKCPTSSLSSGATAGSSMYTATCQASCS
Sequence of human glucagon receptor (hGCGR) (P47871 26-477): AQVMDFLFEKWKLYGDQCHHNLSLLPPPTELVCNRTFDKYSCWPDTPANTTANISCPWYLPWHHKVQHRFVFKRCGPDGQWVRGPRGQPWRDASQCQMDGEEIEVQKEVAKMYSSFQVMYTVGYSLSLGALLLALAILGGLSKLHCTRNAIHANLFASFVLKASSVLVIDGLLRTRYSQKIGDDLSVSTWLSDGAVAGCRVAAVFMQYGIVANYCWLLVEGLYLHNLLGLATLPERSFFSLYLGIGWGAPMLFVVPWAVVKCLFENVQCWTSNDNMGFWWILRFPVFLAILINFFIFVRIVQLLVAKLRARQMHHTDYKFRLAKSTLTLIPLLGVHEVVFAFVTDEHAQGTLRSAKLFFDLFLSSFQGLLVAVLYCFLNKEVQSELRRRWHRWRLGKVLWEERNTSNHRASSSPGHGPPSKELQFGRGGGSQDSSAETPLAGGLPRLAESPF

SMILES | EC50 [1] [nM] | % Relative Potency Ratio [1] | EC50 [2] [nM]
CC[C@H](C)[C@H](NC(=O)[C@H](Cc1c[nH]c2ccccc12)NC(=O)[C@H](CCC(N)=O)NC(=O)[C@@H](NC(=O)[C@](C)(Cc1ccccc1)NC(=O)[C@H](CC(=O)O)NC(=O)[C@H](CCCCNC(=O)COCCOCCNC(=O)COCCOCCNC(=O)CC[C@H](NC(=O)CC[C@H](NC(=O)CCCCCCCCCCCCCCCCCCC(=O)O)C(=O)O)C(=O)O)NC(=O)[C@H](C)NC(=O)[C@H](C)NC(=O)[C@H](CCCNC(=N)N)NC(=O)[C@H](CO)NC(=O)[C@H](CC(=O)O)NC(=O)[C@H](CC(C)C)NC(=O)[C@H](Cc1ccc(O)cc1)NC(=O)[C@H](CCCCN)NC(=O)[C@H](CO)NC(=O)[C@@H](NC(=O)[C@H](CC(=O)O)NC(=O)[C@H](CO)NC(=O)[C@@H](NC(=O)[C@H](Cc1ccccc1)NC(=O)[C@H](CO)NC(=O)CNC(=O)[C@H](Cc1c[nH]cn1)NC(=O)C(C)(C)NC(=O)[C@@H](N)Cc1c[nH]cn1)[C@@H](C)O)C(C)C)C(C)C)C(=O)N[C@@H](C)C(=O)N[C@@H](CC(N)=O)C(=O)N[C@H](C(N)=O)[C@@H](C)O [Peptide 291] (H-H[Aib]HGSFTSDVSKYLDSRAAK([AEEA-AEEA-γGlu-γGlu-C20 diacid])D[αMeF]VQWIANT-NH2) | 1.51 | 1.1 | 0.847
CC[C@H](C)[C@H](NC(=O)[C@H](Cc1c[nH]c2ccccc12)NC(=O)[C@H](CCC(N)=O)NC(=O)[C@@H](NC(=O)[C@H](Cc1ccccc1)NC(=O)[C@H](CC(=O)O)NC(=O)[C@H](CCCCNC(=O)COCCOCCNC(=O)COCCOCCNC(=O)CC[C@H](NC(=O)CCCCCCCCCCCCCCCCC(=O)O)C(=O)O)NC(=O)[C@H](C)NC(=O)[C@H](C)NC(=O)[C@H](CCCNC(=N)N)NC(=O)[C@H](CO)NC(=O)[C@H](CC(=O)O)NC(=O)[C@H](CC(C)C)NC(=O)[C@H](Cc1ccc(O)cc1)NC(=O)[C@H](CCCCN)NC(=O)[C@H](CO)NC(=O)[C@@H](NC(=O)[C@H](CC(=O)O)NC(=O)[C@H](CO)NC(=O)[C@@H](NC(=O)[C@](C)(Cc1ccccc1)NC(=O)[C@H](CO)NC(=O)CNC(=O)[C@H](Cc1c[nH]cn1)NC(=O)C(C)(C)NC(=O)[C@@H](N)Cc1c[nH]cn1)[C@@H](C)O)C(C)C)C(C)C)C(=O)N[C@@H](C)C(=O)N[C@@H](CC(N)=O)C(=O)N[C@H](C(N)=O)[C@@H](C)O [Peptide 292] (H-H[Aib]HGS[αMeF]TSDVSKYLDSRAAK([AEEA-AEEA-γGlu-C18 diacid])DFVQWIANT-NH2) | 0.0287 | 1.4 | 0.0204
CC[C@H](C)[C@H](NC(=O)[C@H](Cc1c[nH]c2ccccc12)NC(=O)[C@H](CCC(N)=O)NC(=O)[C@@H](NC(=O)[C@H](Cc1ccccc1)NC(=O)[C@H](CC(=O)O)NC(=O)[C@H](CCCCNC(=O)COCCOCCNC(=O)COCCOCCNC(=O)CC[C@H](NC(=O)CCCCCCCCCCCCCCCCC(=O)O)C(=O)O)NC(=O)[C@H](C)NC(=O)[C@H](C)NC(=O)[C@H](CCCNC(=N)N)NC(=O)[C@H](CO)NC(=O)[C@H](CC(=O)O)NC(=O)[C@H](CC(C)C)NC(=O)[C@](C)(Cc1ccccc1)NC(=O)[C@H](CCCCN)NC(=O)[C@H](CO)NC(=O)[C@@H](NC(=O)[C@H](CC(=O)O)NC(=O)[C@H](CO)NC(=O)[C@@H](NC(=O)[C@H](Cc1ccccc1)NC(=O)[C@H](CO)NC(=O)CNC(=O)[C@H](Cc1c[nH]cn1)NC(=O)C(C)(C)NC(=O)[C@@H](N)Cc1c[nH]cn1)[C@@H](C)O)C(C)C)C(C)C)C(=O)N[C@@H](C)C(=O)N[C@@H](CC(N)=O)C(=O)N[C@H](C(N)=O)[C@@H](C)O [Peptide 293] (H-H[Aib]HGSFTSDVSK[αMeF]LDSRAAK([AEEA-AEEA-γGlu-C18 diacid])DFVQWIANT-NH2) | 0.092 | 0.7 | 0.0335
CC[C@H](C)[C@H](NC(=O)[C@H](Cc1c[nH]c2ccccc12)NC(=O)[C@H](CCC(N)=O)NC(=O)[C@@H](NC(=O)[C@](C)(Cc1ccccc1)NC(=O)[C@H](CC(=O)O)NC(=O)[C@H](CCCCNC(=O)COCCOCCNC(=O)COCCOCCNC(=O)CC[C@H](NC(=O)CCCCCCCCCCCCCCCCC(=O)O)C(=O)O)NC(=O)[C@H](C)NC(=O)[C@H](C)NC(=O)[C@H](CCCNC(=N)N)NC(=O)[C@H](CO)NC(=O)[C@H](CC(=O)O)NC(=O)[C@H](CC(C)C)NC(=O)[C@H](Cc1ccc(O)cc1)NC(=O)[C@H](CCCCN)NC(=O)[C@H](CO)NC(=O)[C@@H](NC(=O)[C@H](CC(=O)O)NC(=O)[C@H](CO)NC(=O)[C@@H](NC(=O)[C@H](Cc1ccccc1)NC(=O)[C@H](CO)NC(=O)CNC(=O)[C@H](Cc1c[nH]cn1)NC(=O)C(C)(C)NC(=O)[C@@H](N)Cc1c[nH]cn1)[C@@H](C)O)C(C)C)C(C)C)C(=O)N[C@@H](C)C(=O)N[C@@H](CC(N)=O)C(=O)N[C@H](C(N)=O)[C@@H](C)O [Peptide 294] (H-H[Aib]HGSFTSDVSKYLDSRAAK([AEEA-AEEA-γGlu-C18 diacid])D[αMeF]VQWIANT-NH2) | 0.51 | 0.4 | 0.102

The remaining lines, values ahead:

EC50 [1] [nM] | % Relative Potency Ratio [1] | EC50 [2] [nM] | SMILES
0.0316 | 3.3 | 0.053 | CC[C@H](C)[C@H](NC(=O)C(C)(C)NC(=O)[C@H](CCC(N)=O)NC(=O)[C@@H](NC(=O)[C@](C)(Cc1ccccc1)NC(=O)[C@H](CC(=O)O)NC(=O)[C@H](CCCCNC(=O)COCCOCCNC(=O)COCCOCCNC(=O)CC[C@H](NC(=O)CCCCCCCCCCCCCCCCC(=O)O)C(=O)O)NC(=O)[C@H](C)NC(=O)[C@H](C)NC(=O)[C@H](CCCNC(=N)N)NC(=O)[C@H](CO)NC(=O)[C@H](CC(=O)O)NC(=O)[C@H](CC(C)C)NC(=O)[C@H](Cc1ccc(O)cc1)NC(=O)[C@H](CCCCN)NC(=O)[C@H](CO)NC(=O)[C@@H](NC(=O)[C@H](CC(=O)O)NC(=O)[C@H](CO)NC(=O)[C@@H](NC(=O)[C@](C)(Cc1ccccc1)NC(=O)[C@H](CO)NC(=O)CNC(=O)[C@H](Cc1c[nH]cn1)NC(=O)C(C)(C)NC(=O)[C@@H](N)Cc1c[nH]cn1)[C@@H](C)O)C(C)C)C(C)C)C(=O)N[C@@H](C)C(=O)N[C@@H](CC(N)=O)C(=O)N[C@H](C(N)=O)[C@@H](C)O [Peptide 286] (H-H[Aib]HGS[αMeF]TSDVSKYLDSRAAK([AEEA-AEEA-γGlu-C18 diacid])D[αMeF]VQ[Aib]IANT-NH2; N-terminus assumed)
0.0427 | 1.2 | 0.0269 | CC[C@H](C)[C@H](NC(=O)[C@H](Cc1c[nH]c2ccccc12)NC(=O)[C@H](CCC(N)=O)NC(=O)[C@@H](NC(=O)[C@](C)(Cc1ccccc1)NC(=O)[C@H](CC(=O)O)NC(=O)[C@H](CCCCNC(=O)COCCOCCNC(=O)COCCOCCNC(=O)CC[C@H](NC(=O)CCCCCCCCCCCCCCCCC(=O)O)C(=O)O)NC(=O)[C@H](C)NC(=O)[C@H](C)NC(=O)[C@H](CCCNC(=N)N)NC(=O)[C@H](CO)NC(=O)[C@H](CC(=O)O)NC(=O)[C@H](CC(C)C)NC(=O)[C@](C)(Cc1ccccc1)NC(=O)[C@H](CCCCN)NC(=O)[C@H](CO)NC(=O)[C@@H](NC(=O)[C@H](CC(=O)O)NC(=O)[C@H](CO)NC(=O)[C@@H](NC(=O)[C@](C)(Cc1ccccc1)NC(=O)[C@H](CO)NC(=O)CNC(=O)[C@H](Cc1c[nH]cn1)NC(=O)C(C)(C)NC(=O)[C@@H](N)Cc1c[nH]cn1)[C@@H](C)O)C(C)C)C(C)C)C(=O)N[C@@H](C)C(=O)N[C@@H](CC(N)=O)C(=O)N[C@H](C(N)=O)[C@@H](C)O [Peptide 288] (H-H[Aib]HGS[αMeF]TSDVSK[αMeF]LDSRAAK([AEEA-AEEA-γGlu-C18 diacid])D[αMeF]VQWIANT-NH2)
0.312 | 108.2 | 17.1 | CC[C@H](C)[C@H](NC(=O)C(C)(C)NC(=O)[C@H](CCC(N)=O)NC(=O)[C@@H](NC(=O)[C@](C)(Cc1ccccc1)NC(=O)[C@H](CC(=O)O)NC(=O)[C@H](CCCCNC(=O)COCCOCCNC(=O)COCCOCCNC(=O)CC[C@H](NC(=O)CC[C@H](NC(=O)CCCCCCCCCCCCCCCCCCC(=O)O)C(=O)O)C(=O)O)NC(=O)[C@H](C)NC(=O)[C@H](C)NC(=O)[C@H](CCCNC(=N)N)NC(=O)[C@H](CO)NC(=O)[C@H](CC(=O)O)NC(=O)[C@H](CC(C)C)NC(=O)C(C)(C)NC(=O)[C@H](CCCCN)NC(=O)[C@H](CO)NC(=O)[C@@H](NC(=O)[C@H](CC(=O)O)NC(=O)[C@H](CO)NC(=O)[C@@H](NC(=O)[C@](C)(Cc1ccccc1)NC(=O)[C@H](CO)NC(=O)CNC(=O)[C@H](Cc1c[nH]cn1)NC(=O)C(C)(C)NC(=O)[C@@H](N)Cc1c[nH]cn1)[C@@H](C)O)C(C)C)C(C)C)C(=O)N[C@@H](C)C(=O)N[C@@H](CC(N)=O)C(=O)N[C@H](C(N)=O)[C@@H](C)O [Peptide 295] (H-H[Aib]HGS[αMeF]TSDVSK[Aib]LDSRAAK([AEEA-AEEA-γGlu-γGlu-C20 diacid])D[αMeF]VQ[Aib]IANT-NH2)
0.0641 | 100.3 | 3.25 | CC[C@H](C)[C@H](NC(=O)C(C)(C)NC(=O)[C@H](CCC(N)=O)NC(=O)[C@@H](NC(=O)[C@](C)(Cc1ccccc1)NC(=O)[C@H](CC(=O)O)NC(=O)[C@H](CCCCNC(=O)COCCOCCNC(=O)COCCOCCNC(=O)CC[C@H](NC(=O)CCCCCCCCCCCCCCCCC(=O)O)C(=O)O)NC(=O)[C@H](C)NC(=O)[C@H](C)NC(=O)[C@H](CCCNC(=N)N)NC(=O)[C@H](CO)NC(=O)[C@H](CC(=O)O)NC(=O)[C@H](CC(C)C)NC(=O)C(C)(C)NC(=O)[C@H](CCCCN)NC(=O)[C@H](CO)NC(=O)[C@@H](NC(=O)[C@H](CC(=O)O)NC(=O)[C@H](CO)NC(=O)[C@@H](NC(=O)[C@](C)(Cc1ccccc1)NC(=O)[C@H](CO)NC(=O)CNC(=O)[C@H](Cc1c[nH]cn1)NC(=O)C(C)(C)NC(=O)[C@@H](N)Cc1c[nH]cn1)[C@@H](C)O)C(C)C)C(C)C)C(=O)N[C@@H](C)C(=O)N[C@@H](CC(N)=O)C(=O)N[C@H](C(N)=O)[C@@H](C)O [Peptide 296] (H-H[Aib]HGS[αMeF]TSDVSK[Aib]LDSRAAK([AEEA-AEEA-γGlu-C18 diacid])D[αMeF]VQ[Aib]IANT-NH2)
